In publication PMC11671014 (PLOS Pathogens, 2024):
Like-named read-outs stand apart in the source and are kept apart here.

What was measured:
[1] = system: P. vivax Brazilian field isolates; experiment: Ex vivo drug susceptibility of Brazilian field isolates (P. vivax); format: cell-based
Description: (§1) Compounds were assayed on ten P. vivax isolates and seven P. falciparum Brazilian isolates collected from mono-infected patients, who had signed a written informed consent form to participate in the study, using previously described methods. The initial parasitemia ranged from 2,100–8,000 parasites/μL for P. vivax and 3,500–9,000 parasites/μL for P. falciparum isolates. Artesunate and chloroquine were assayed in parallel as standard compounds. The analyses included only the isolates that were incubated for ≥ 40 h with the compounds.

[2] = system: P. falciparum Brazilian field isolates; experiment: Ex vivo drug susceptibility of Brazilian field isolates (P. falciparum); format: cell-based
Description: as §1

[3] = system: P. falciparum (3D7, ring stage) cultures; experiment: P. falciparum 3D7 72-h growth inhibition, lactate dehydrogenase (PfLDH) assay; format: cell-based; conditions: Plasmodium falciparum, 72 h exposure
Description: Routine analyses of antimalarial activity against P. falciparum 3D7 was tested by TCGLS (Kolkata, India) using the lactate dehydrogenase (PfLDH) growth inhibition assay as previously described. […] P. falciparum strain (3D7) was obtained from BEI Resources.

PfTyrRS [4] = molecular target: T1, PfTyrRS (Plasmodium falciparum, UniProt Q8IAR7); experiment: ATP consumption by PfTyrRS (Kinase Glo); format: biochemical; conditions: PfTyrRS 25 nM, ATP 10 μM, tyrosine 200 μM, cognate tRNA^Tyr 4.8 μM, 37°C 1 h; read-out: Inhibition of PfTyrRS (Kinase Glo) IC50
Description: Consumption of ATP was measured using a luciferase-based assay as per the manufacturer’s instructions (Kinase-Glo Luminescent Kinase Assay, Promega).

HepG2 cells = experiment: HepG2 72-h viability, CellTiter-Glo; format: cell-based; conditions: Homo sapiens, 72 h exposure
Description: The HepG2 (Human hepatocyte carcinoma) cell line was procured from ATCC (American Type Culture Collection, Manassas, USA; HB-8065) and viability assessed using CellTiter-Glo luminescent cell viability assay reagents (Promega). For the assay, 2,000 cells/well were plated in 384-well plates 24 h prior to the experiment and incubated at 37°C in a CO2 incubator. The medium was removed; and cells were treated with fresh medium containing either vehicle (0.5% DMSO) or serially diluted compounds or doxorubicin (1.3 nM to 25 μM) in a final volume of 50 μL/well and further incubated for 72 h at 37°C in a CO2 incubator. […] Following incubation, 25 μL of medium was discarded and 25 μl of CellTiter-Glo reagent was added to each well and the plate was kept on a plate shaker for 15 min at 25°C with shaking at 300 rpm. Luminescence signals were measured in a PHERAstar FSX reader (BMG LABTECH).

PfTyrRS [5] = molecular target: T1, PfTyrRS; experiment: Differential scanning fluorimetry (DSF) of PfTyrRS; format: binding
Description: The effect on ML471 and analogues on the thermal stability of TyrRS enzymes was assayed as previously described. […] SYPRO Orange (Sigma-Aldrich; 5,000X concentrate in DMSO) was added to the reaction mixture at a final concentration of 5X. 25 μL of the sample was added into each well of a 96-well qPCR plate (Applied Biosystems). The plate was sealed and analysed using StepOnePlus Real-Time PCR system (Applied Biosystems). The samples were heated from 20°C to 90°C with a 1% continuous gradient. The thermal unfolding curve was plotted as the first derivative curve of the raw fluorescence values. The melting temperature (Tm), defined as the peak of the first derivative curve, was used to assess the thermal stability of protein-ligand complexes.

[6] = system: P. falciparum liver stage schizont (NF135); experiment: Liver stage schizont assay in primary human hepatocytes (NF135); format: cell-based; conditions: Plasmodium falciparum, Hepatocyte, 96 h, four days
Description: (§2) Activity against liver stage parasites was performed using a modification of published procedures. Briefly, cryopreserved human primary hepatocytes (NF175: H1500.H15B+ Lot No. HC0-6, TebuBio or NF135: F00995-P Lot No. IRZ, BioIVT) were thawed and seeded at 18,000 cells per well in collagen-coated 384-well microtiter plates in medium containing 10% heat inactivated fetal bovine serum (hiFBS). Cells were cultured at 37°C in 5% CO2. For NF175, medium was replaced by fresh medium containing 10% hiFBS, 5 h post plating. For NF135, medium was replaced by medium containing 0.2% BSA, 24 h post plating. 48 h post plating, salivary glands from Plasmodium-NF175 or NF135-infected Anopheles stephensi mosquitoes were dissected, added to the hepatocytes (10,000 per well/ NF175; or 12,500 per well/ NF135) and allowed to infect for 3 hours. Sporozoites were then aspirated, and compounds diluted in medium containing 10% hiFBS or 0.2% BSA, were added to the hepatocytes. Medium containing 10% hiFBS or 0.2% BSA and compounds was refreshed daily for four days. Hepatocytes were fixed with ice-cold methanol and samples were blocked with 10% hiFBS in PBS. Schizonts were stained with rabbit anti-HSP70 in 10% hiFBS for 1–2 h followed by incubation with a mixture of secondary goat anti-rabbit AlexaFluor 594 antibody and 4′,6-diamidine-2′-phenylindole dihydrochloride (DAPI) in 10% hiFBS for 30 min. Samples were washed with PBS containing 0.05% Tween 20 between different steps. Cells were imaged on a PicoExpress high content imager, and images were analysed automatically using CellReporterXpress software. Data were analysed by logistic regression using a four-parameter (Hill equation) model and a least-squares method to find the best fit.

Primary hepatocytes = experiment: Toxicity to primary hepatocyte host cells in the liver stage assay; format: cell-based, human; conditions: Homo sapiens, Hepatocyte, host cells of the NF135 experiment
Description: as §2

[7] = system: Pf3D7-pfs16-CBG99 gametocytes, immature (stage II/III) and mature (stage V); experiment: Gametocyte killing assay (luciferase); format: cell-based; conditions: Plasmodium falciparum, 48 h
Description: Gametocytogenesis was induced on a tightly synchronised (>97% rings) asexual parasite culture (Pf3D7-pfs16-CBG99 (kind gift from Pietro Alano), 0.5% parasitemia and 6% hematocrit) with a combination of nutrient starvation and a decrease in hematocrit, as previously described. For immature gametocytes (>90% stage II/III), cultures were exposed to 50 mM N-acetyl glucosamine (NAG) on days 1–4 to eliminate residual asexual parasites and harvested at days 5–6. For mature (>95% stage V) gametocytes, NAG treatment occurred from days 3–7 and harvest at day 13. Stage II/III and V gametocyte cultures (2 % gametocytaemia 1.5 % haematocrit, 150 μL/well) were exposed to compounds and incubated at 37°C for 48 h under hypoxic conditions, after which luciferase activity was determined with a non-lysing D-luciferin substrate (1mM in 0.1M citrate buffer, pH 5.5, 100 μL) and bioluminescence was detected with a 2 s integration time with a GloMax-Multi Detection System with Instinct software.

[8] = system: P. falciparum (strain 3D7A); parameters: method as in ref [1] Sanz et al., PloS one 2012; conditions: 10 x IC50; ref [1] Sanz et al., PloS one 2012; cited from earlier work
[9] = molecular target: the molecule itself; experiment: crystal structure; PfTyrRS (10 mg/mL) with 500 uM synthetic Tyr-ML471; sitting drop vapour diffusion at 20°C, 2.25 M sodium malonate pH 6; refined at 1.8 Å

Molecule: C[C@H]1[C@H](OC(=O)CCC(=O)O)O[C@@H]2O[C@@]3(C)CC[C@H]4[C@H](C)CC[C@@H]1[C@@]24OO3 [Artesunate]
- EC50 ([1]; Plasmodium vivax; range over n = 10 isolates; read-out: EC50 range, P. vivax Brazilian field isolates): 0.8 to 3.5 nM
- EC50 ([1]; Plasmodium vivax; read-out: Median EC50, P. vivax Brazilian field isolates): 1.7 nM
- EC50 ([2]; Plasmodium falciparum; range over n = 7 isolates; read-out: EC50 range, P. falciparum Brazilian field isolates): 0.8 to 3.1 nM
- EC50 ([2]; Plasmodium falciparum; read-out: Median EC50, P. falciparum Brazilian field isolates): 2.2 nM

Molecule: CC(=O)c1nn([C@@H]2O[C@H](COS(N)(=O)=O)[C@@H](O)[C@H]2O)c2ncnc(N)c12 [ML111]
- IC50 [3]: 4.3 ± 0.7 nM
- IC50 (PfTyrRS [4]): 34 ± 14 µM
- IC50 (HepG2 cells): > 50 µM
- ΔTm at 50 µM (PfTyrRS [5]; 50 μM sulfamate, ATP, tyrosine, PftRNA^Tyr, 37°C 2 h, read-out: PfTyrRS binding (DSF) Delta Tm): 15.1 ± 0.2 °C
- Kd (PfTyrRS [5]; estimated from DSF with an irreversible thermal unfolding model, read-out: PfTyrRS binding (DSF) apparent KD): 0.7 nM
- PfTyrRS Tm (PfTyrRS [5]; with sulfamate, ATP, tyrosine and tRNA, apo 49.9 ± 0.6): 65.0 ± 0.5 °C

Molecule: CS(=O)(=O)c1ccc(-c2cnc(N)c(-c3ccc(C(F)(F)F)nc3)c2)cc1 [MMV390048, reference compound]
- IC50 [6]: 23.3 ± 13.3 nM
- IC50 (Primary hepatocytes): > 100 nM
- IC50 ([7]; read-out: Early stage gametocytes IC50): 138 ± 8 nM
- IC50 ([7]; read-out: Mature stage gametocytes IC50): 150 ± 20 nM

Molecule: CCN(CC)CCCC(C)Nc1ccnc2cc(Cl)ccc12 (stereo not shown) [Chloroquine]
- EC50 ([1]; Plasmodium vivax, read-out: EC50 range, P. vivax Brazilian field isolates): 104 to 560 nM
- EC50 ([1]; Plasmodium vivax, read-out: Median EC50, P. vivax Brazilian field isolates): 143 nM
- EC50 ([2]; Plasmodium falciparum, read-out: EC50 range, P. falciparum Brazilian field isolates): 172 to 520 nM
- EC50 ([2]; Plasmodium falciparum, read-out: Median EC50, P. falciparum Brazilian field isolates): 286 nM
- Lag phase [8]: 0 h
- PCT99.9% [8]: 33.8 h
- Slope [8]: -0.094

Molecule: C[C@@H]1CC[C@H]2[C@@H](C)C(=O)O[C@@H]3O[C@@]4(C)CC[C@@H]1[C@]32OO4 [Artemisinin]
- Lag phase [8]: 0 h
- Log PRR [8]: > 4.8
- PCT99.9% [8]: < 24 h

B1: Plasmodium falciparum cytoplasmic tyrosine tRNA synthetase (enzyme, P. falciparum)
chain: METTDTKREEQEIEEKKAQEESKIEDVDKILNDILSISSECIQPDELRVKLLLKRKLICYDGFEPSGRMHIAQGLLKSIIVNKLTSNGCTFIFWIADWFAHLNNKMSGDLKKIKKVGSYFIEVWKSCGMNMENVQFLWASEEINKKPNEYWSLVLDISRSFNINRMKRCLKIMGRSEGEENYCSQILYPCMQCADIFFLNVDICQLGIDQRKVNMLAREYCDIKKIKKKPVILSHGMLPGLLEGQEKMSKSDENSAIFMDDSESDVNRKIKKAYCPPNVIENNPIYAYAKSIIFPSYNEFNLVRKEKNGGDKTYYTLQELEHDYVNGFIHPLDLKDNVAMYINKLLQPVRDHFQNNIEAKNLLNEIKKYKVTK
notes: Plasmodium falciparum cytoplasmic tyrosine tRNA synthetase; also called PfTyrRS; His-PfTyrRS; source: E. coli BL21(DE3), purified (HisTrap HP, TEV cleavage, second HisTrap HP, Superdex 200 gel filtration)
- stoichiometry N [9]: 2
